The values below come from publication PMC11310081, “Deep-learning-enabled antibiotic discovery through molecular de-extinction” (Nature Biomedical Engineering, 2024).

The subject of data set [1] is A. baumannii ATCC 19606. The class given is cell-based, Acinetobacter baumannii. Particulars: ATCC 19606, 20 h. The method in brief: (§1)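 Antimicrobial activity is measured by broth microdilution against log-phase bacteria (OD600 0.3–0.5). Peptide range: 1 to 64 μmol l^−1.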
The subject of data set [2] is A. baumannii ATCC 19606. Description: Cytoplasmic membrane depolarization assay (DiSC3-5). The class given is cell-based, Acinetobacter baumannii. Particulars: DiSC3-5 fluorescence, peptide at its MIC, polymyxin B as positive control; three replicates. How it is done: The depolarization of the bacterial cytoplasmic membrane was determined by fluorescence measurements of the membrane potential-sensitive dye, DiSC3-5 (ref. [16]). Briefly, A. baumannii ATCC 19606 and P. aeruginosa PAO1 were grown at 37 °C until mid-log phase (OD600 = 0.5). The cells were then centrifuged using the same conditions described for the NPN uptake assays, washed twice with washing buffer containing 20 mmol l^−1 glucose and 5 mmol l^−1 HEPES (pH 7.2). The cells were diluted 1:10 (OD600 = 0.05) in a buffer containing 0.1 mol l^−1 KCl, 20 mmol l^−1 glucose and 5 mmol l^−1 HEPES (pH 7.2). About 100 μl of bacterial solution was then incubated for 15 min with 20 nmol l^−1 of DiSC3-5 until the fluorescence reached a plateau, that is, the dye was fully internalized into the bacterial membrane. Transmembrane potential changes were monitored by observing the difference in the fluorescence emission intensity of DiSC3-5 (λex = 622 nm, λem = 670 nm), after the addition of 100 μl of peptide aqueous solution at its MIC. All assays were performed in three biological replicates. The relative fluorescence values were calculated for the course of the experiment using non-linear fitting, and the untreated control (buffer + bacteria + fluorescent dye) served as baseline. The following equation was applied to show the percentage difference between the fluorescence of the untreated control (baseline) and the sample: Percentagedifference=100×(fluorescencesample−baseline)/baseline

Data set [3] relates to 11 clinically relevant bacterial pathogens. The class given is cell-based. Particulars: for Active or Inactive: Supplementary Dataset 2, against the 11 pathogens tested. The method in brief:
as §1

The next data set has as its system HEK293T cells. Particulars: 24 h. The method in brief:
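5,000 cells/well seeded a day ahead in DMEM with 10% FBS, then treated with peptides; viability by MTT (0.5 mg/ml, 4 h, 37 °C), formazan in acidic isopropanol read at 570 nm. Concentration causing 50% lysis from non-linear regression; three biological replicates, two technical each.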

In the next data set the test system is S. aureus ATCC 12600. The data set is classed as cell-based, Staphylococcus aureus. The conditions noted are these: ATCC 12600, 20 h. From the text:
(§2) The following Gram-negative bacteria were used in our study: A. baumannii ATCC 19606, E. coli ATCC 11775, E. coli AIC221 (E. coli MG1655 phnE_2::FRT), E. coli AIC222 (E. coli MG1655 pmrA53 phnE_2::FRT (colistin resistant)), K. pneumoniae ATCC 13883, P. aeruginosa PAO1 and P. aeruginosa PA14. The following Gram-positive bacteria were also used in our study: S. aureus ATCC 12600, S. aureus ATCC BAA-1556 (methicillin-resistant strain), E. faecalis ATCC 700802 (vancomycin-resistant strain) and E. faecium ATCC 700221 (vancomycin-resistant strain). Bacteria were grown from frozen stocks and plated on Luria–Bertani (LB) or Pseudomonas isolation agar plates (P. aeruginosa strains) and incubated overnight at 37 °C. After the incubation period, a single colony was transferred to 5 ml of LB medium, and cultures were incubated overnight (16 h) at 37 °C. The following day, an inoculum was prepared by diluting the overnight cultures 1:100 in 5 ml of the respective media and incubating them at 37 °C until bacteria reached logarithmic phase (OD600 = 0.3–0.5).
(§3) The in vitro antimicrobial activity of the peptides was assessed by using the broth microdilution assay. […] Aqueous solutions of the peptides were added to the plate at concentrations ranging from 1 to 64 μmol l^−1. […] The optical density of the plates was measured at 600 nm using a spectrophotometer. All assays were done as three biological replicates.

Data set [4] relates to S. aureus ATCC BAA-1556 (methicillin-resistant strain). The class given is cell-based, Staphylococcus aureus. Particulars: ATCC BAA-1556, 20 h.
Description: as §2, §3

The test system of data set [5] is E. faecium ATCC 700221 (vancomycin-resistant strain). The data set is classed as cell-based, Enterococcus faecium. Particulars: ATCC 700221, 20 h.
Description: as §2, §3

In the next data set the test system is P. aeruginosa PA14. The data set is classed as cell-based, Pseudomonas aeruginosa. The conditions noted are these: PA14, 20 h.
Description: as §2, §3

In a further data set the test system is P. aeruginosa PAO1. The data set is classed as cell-based, Pseudomonas aeruginosa. Particulars: PAO1, 20 h.
Description: as §2, §3

A further data set deals with K. pneumoniae ATCC 13883. The data set is classed as cell-based, Klebsiella pneumoniae. The conditions noted are these: ATCC 13883, 20 h.
Description: as §2, §3

In the next data set the test system is E. coli AIC221. The class given is cell-based, Escherichia coli. The conditions noted are these: AIC221, 20 h.
Description: as §2, §3

Values after ≈ are worked out from the molar mass of the structure shown. Peptide text beside a SMILES is read from it.

A word on the CC50: it is the concentration that lowers cell viability or growth by half. Regarding `CC[C@H](C)[C@H](NC(=O)[C@H](CCCCN)NC(=O)[C@@H](N)CCCNC(=N)N)C(=O)N[C@@H](CC(C)C)C(=O)NCC(=O)N[C@@H](CC(=O)O)C(=O)N[C@@H](CC(C)C)C(=O)N[C@@H](CCCCN)C(=O)N[C@@H](Cc1ccccc1)C(=O)N[C@@H](CC(C)C)C(=O)N[C@@H](CCC(=O)O)C(=O)N[C@@H](CO)C(=O)N[C@@H](CC(C)C)C(=O)N[C@@H](CCCCN)C(=O)N[C@H](C(=O)N[C@@H](Cc1ccc(O)cc1)C(=O)O)[C@@H](C)O` [Anomalopterin-1] (H-RKILGDLKFLESLKTY-OH; N-terminus and C-terminus assumed), in the data set on A. baumannii ATCC 19606 [1], the “Minimal inhibitory concentration, A. baumannii ATCC19606” value turned out to be 64 µM (≈ 123 µg/mL). Further, in the data set on A. baumannii ATCC 19606 [2], the “Cytoplasmic membrane depolarization, in words” value is “most potent depolarization effects”. The “Active or Inactive” value in data set [3] was “Active”. In addition, in the data set on HEK293T cells, the CC50 was greater than 128 µM and the “TI (therapeutic index)” value was greater than 2.
Consider `CC[C@H](C)[C@H](NC(=O)[C@H](CO)NC(=O)CNC(=O)[C@H](CC(C)C)NC(=O)[C@H](CC(C)C)NC(=O)[C@H](CC(C)C)NC(=O)[C@H](CCCNC(=N)N)NC(=O)[C@H](CCCCN)NC(=O)[C@@H](NC(=O)[C@H](CO)NC(=O)[C@H](CC(N)=O)NC(=O)[C@@H](NC(=O)[C@H](CC(C)C)NC(=O)[C@@H](N)CC(C)C)[C@@H](C)CC)[C@@H](C)CC)C(=O)N[C@@H](CC(C)C)C(=O)O` [Arctodutin-1] (H-LLINSIKRLLLGSIL-OH; N-terminus and C-terminus assumed), for which, in the data set with S. aureus ATCC 12600, the “Minimal inhibitory concentration, S. aureus ATCC12600” value turned out to be 8 µM (≈ 13.3 µg/mL). For the same molecule, the “Minimal inhibitory concentration, S. aureus ATCC BAA-1556-MRSA” value in [4] was 8 µM (≈ 13.3 µg/mL). The “Minimal inhibitory concentration, A. baumannii ATCC19606” value in the data set on A. baumannii ATCC 19606 [1] amounted to 8 µM (≈ 13.3 µg/mL). Also, the “Active or Inactive” value in data set [3] is reported as “Active”. In the data set on HEK293T cells, the CC50 is greater than 128 µM. Also, the “Minimal inhibitory concentration, E. faecium ATCC700221-VRE” value in data set [5] is 2 µM (≈ 3.33 µg/mL).
In the case of `CC(C)C[C@H](NC(=O)[C@H](CC(C)C)NC(=O)[C@@H](NC(=O)[C@H](CCCNC(=N)N)NC(=O)[C@H](C)NC(=O)[C@H](Cc1ccccc1)NC(=O)[C@H](CCCNC(=N)N)NC(=O)[C@H](CO)NC(=O)[C@H](Cc1c[nH]c2ccccc12)NC(=O)[C@H](CCCNC(=N)N)NC(=O)[C@H](CC(C)C)NC(=O)[C@H](CCCCN)NC(=O)[C@H](CC(C)C)NC(=O)[C@@H](N)Cc1ccccc1)C(C)C)C(=O)O` [Equusin-1] (H-FLKLRWSRFARVLL-OH; N-terminus and C-terminus assumed), in [4], the “Minimal inhibitory concentration, S. aureus ATCC BAA-1556-MRSA” value came out at 16 µM (≈ 28.9 µg/mL). In addition, the “Minimal inhibitory concentration, P. aeruginosa PA14” value with P. aeruginosa PA14 was 4 µM (≈ 7.22 µg/mL). Moreover, in the data set with P. aeruginosa PAO1, the “Minimal inhibitory concentration, P. aeruginosa PAO1” value worked out at 16 µM (≈ 28.9 µg/mL). Besides, the “Minimal inhibitory concentration, K. pneumoniae ATCC133883” value in the data set with K. pneumoniae ATCC 13883 came out at 16 µM (≈ 28.9 µg/mL). The “Active or Inactive” value in [3] is on record as “Active”. In data set [3] (Supplementary Table 17, lowest MIC among the strains tested), the “MIC (lowest MIC value in the antimicrobial activity assays)” value turned out to be 1 µM (≈ 1.81 µg/mL). Also, the CC50 with HEK293T cells was greater than 128 µM. Moreover, the “Minimal inhibitory concentration, E. faecium ATCC700221-VRE” value in [5] was 1 µM (≈ 1.81 µg/mL). The “Minimal inhibitory concentration, E. coli AIC221” value in the data set with E. coli AIC221 was 4 µM (≈ 7.22 µg/mL).
As to `CC[C@H](C)[C@H](NC(=O)[C@H](Cc1ccc(O)cc1)NC(=O)[C@H](C)NC(=O)[C@@H](N)CCCNC(=N)N)C(=O)N[C@@H](CS)C(=O)N[C@@H](CCCNC(=N)N)C(=O)N[C@@H](CCCCN)C(=O)N[C@@H](CCCCN)C(=O)N[C@@H](Cc1ccccc1)C(=O)N[C@@H](CC(C)C)C(=O)N[C@@H](CO)C(=O)N[C@@H](CC(C)C)C(=O)N[C@@H](CCCNC(=N)N)C(=O)N[C@@H](CCCCN)C(=O)N[C@@H](C)C(=O)N[C@@H](CO)C(=O)N[C@H](C(=O)N[C@@H](CCCCN)C(=O)N[C@@H](CC(C)C)C(=O)N[C@@H](CCC(N)=O)C(=O)N[C@@H](CO)C(=O)N[C@@H](CC(C)C)C(=O)N[C@H](C(=O)N[C@@H](CCCNC(=N)N)C(=O)N[C@@H](CCSC)C(=O)N[C@@H](CCCCN)C(=O)O)C(C)C)[C@@H](C)CC` [Equusin-2] (H-RAYICRKKFLSLRKASIKLQSLVRMK-OH; N-terminus and C-terminus assumed), in the data set on A. baumannii ATCC 19606 [1], the “Minimal inhibitory concentration, A. baumannii ATCC19606” value worked out at 8 µM (≈ 25.1 µg/mL). The “Cytoplasmic membrane depolarization, in words” value in the data set on A. baumannii ATCC 19606 [2] is recorded as “most potent depolarization effects”. Besides, in data set [3], the “Active or Inactive” value is “Active”. Further, in the data set on HEK293T cells, the CC50 is greater than 128 µM and the “TI (therapeutic index)” value is listed as greater than 16. In addition, the “Minimal inhibitory concentration, E. coli AIC221” value in the data set with E. coli AIC221 worked out at 16 µM (≈ 50.2 µg/mL).
In the case of `CC[C@H](C)[C@H](NC(=O)[C@H](CCCCN)NC(=O)[C@H](CCCCN)NC(=O)[C@H](Cc1ccccc1)NC(=O)[C@H](Cc1ccccc1)NC(=O)[C@@H](NC(=O)[C@@H](NC(=O)[C@H](CO)NC(=O)[C@H](CCCCN)NC(=O)[C@@H](NC(=O)[C@@H](NC(=O)[C@H](Cc1c[nH]c2ccccc12)NC(=O)[C@H](CCCCN)NC(=O)[C@H](CCCCN)NC(=O)[C@@H](NC(=O)[C@H](CCC(=O)O)NC(=O)[C@H](CCCCN)NC(=O)[C@H](CC(C)C)NC(=O)[C@@H](NC(=O)[C@H](CCCCN)NC(=O)[C@H](CCCNC(=N)N)NC(=O)[C@H](CC(C)C)NC(=O)[C@H](CC(C)C)NC(=O)[C@@H](N)CCCCN)C(C)C)[C@@H](C)O)C(C)C)[C@@H](C)CC)C(C)C)C(C)C)C(=O)N[C@@H](CCCNC(=N)N)C(=O)N[C@@H](CCCCN)C(=O)O` [Hesperelin-1] (H-KLLRKVLKETKKWVIKSVVFFKKIRK-OH; N-terminus and C-terminus assumed), in the data set with A. baumannii ATCC 19606 [1], the “Minimal inhibitory concentration, A. baumannii ATCC19606” value was found to be 4 µM (≈ 13 µg/mL). The “Minimal inhibitory concentration, P. aeruginosa PA14” value in the data set on P. aeruginosa PA14 is 16 µM (≈ 51.9 µg/mL). The “Minimal inhibitory concentration, P. aeruginosa PAO1” value in the data set on P. aeruginosa PAO1 worked out at 8 µM (≈ 26 µg/mL). Further, the “Active or Inactive” value in data set [3] is recorded as “Active”. The molecule further came in with a CC50 with HEK293T cells greater than 128 µM. Besides, in data set [5], the “Minimal inhibitory concentration, E. faecium ATCC700221-VRE” value worked out at 2 µM (≈ 6.49 µg/mL). Besides, in the data set on E. coli AIC221, the “Minimal inhibitory concentration, E. coli AIC221” value was 8 µM (≈ 26 µg/mL).
`CC[C@H](C)[C@H](NC(=O)CNC(=O)[C@H](Cc1c[nH]cn1)NC(=O)[C@H](CC(N)=O)NC(=O)[C@H](CCCCN)NC(=O)[C@H](CCC(N)=O)NC(=O)[C@@H](N)CCCNC(=N)N)C(=O)N[C@@H](Cc1c[nH]cn1)C(=O)N[C@@H](Cc1ccccc1)C(=O)N[C@@H](CCCNC(=N)N)C(=O)N[C@H](C(=O)N[C@@H](CC(C)C)C(=O)N[C@@H](C)C(=O)N[C@@H](CCCCN)C(=O)N[C@@H](C)C(=O)N[C@@H](CC(C)C)C(=O)N[C@@H](CCCNC(=N)N)C(=O)O)C(C)C` [Hesperelin-3] (H-RQKNHGIHFRVLAKALR-OH; N-terminus and C-terminus assumed): in the data set with A. baumannii ATCC 19606 [2], the “Cytoplasmic membrane depolarization, in words” value is “most potent depolarization effects”. Further, the “Active or Inactive” value in data set [3] was “Active”.
